Measured values: patent publication US9081736B2, “Modeling of mPGES-1 three-dimensional structures: applications in drug design and discovery” (The University of Kentucky Research Foundation, priority 2007, dated 2015)
Substitutions are numbered along the chain they refer to.

How the values were obtained:
mPGES-1 = molecular target: T1, mPGES-1 (Homo sapiens, UniProt O14684); conditions: background statement; not selective for mPGES-1; cited from earlier work
T1 sequence (O14684 1-152): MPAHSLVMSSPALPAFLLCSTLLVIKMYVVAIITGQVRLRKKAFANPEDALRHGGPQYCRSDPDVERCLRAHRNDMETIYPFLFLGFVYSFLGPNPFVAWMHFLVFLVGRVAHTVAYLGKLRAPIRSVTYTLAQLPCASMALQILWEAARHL

mPGES-1 Q36E mutant = molecular target: T2, mPGES-1 Q36E mutant (Homo sapiens, UniProt O14684, Q36E); assay: Activity assay, saturation kinetics for PGH2, Q36E mutant; assay type: biochemical; conditions: 2.5 mM GSH, 1-500 μM PGH2, errors expected to be very large, read-out: Experimental KM, this work
T2 sequence (O14684 1-152 Q36E): T1 sequence (O14684 1-152) with Q36E
Procedure: (§1) Expression and Preparation for the Membrane Fraction of mPGES-1 and its Mutants in E. coli: The wild-type mPGES-1 and its mutant plasmids from XLI-Blue were transformed into M15 E. coli cells. Cells were grown in 500 ml TB media containing 100 μg/ml ampicillin and 25 μg/ml kanamycin at 37° C. with shaking at 270 rpm until OD reached 0.8. IPTG was added to a final concentration of 2 mM and cells were allowed to grow for additional 3 hours at 37° C. Cells were then harvested by centrifugation at 5000 g for 15 min at 4° C. […] The cells were broken by sonication, and then the cell lysate was cleared by centrifugation at 12,500 g for 10 min. […] Total protein concentration of the membrane fraction was determined by coomassie protein assay according to the manufacture's instruction (Bio-Rad) with BSA as a standard.
(§2) The reaction contents were 1:2500 diluted, from which 50 μl aliquot was used for quantification of […] concentration by EIA assay. […] The KM values of wild-type mPGES-1 and its mutants were calculated by using the GraphPad Prism 4.01 program.

wild-type mPGES-1 = molecular target: T3, wild-type mPGES-1 (Homo sapiens, UniProt O14684); assay: Activity assay, saturation kinetics for PGH2, wild-type mPGES-1; assay type: biochemical; parameters: The specific oligonucleotide primers to full length of mPGES-1 were synthesized; made in house; host or cells: E. coli M15 (membrane fraction); conditions: 2.5 mM GSH, 1-500 μM PGH2, on ice, read-out: Experimental KM, this work
T3 sequence (O14684 1-152): T1 sequence (O14684 1-152)
Procedure: as §1, §2

mPGES-1 Q134E mutant = molecular target: T4, mPGES-1 Q134E mutant (Homo sapiens, UniProt O14684, Q134E); assay: Activity assay, saturation kinetics for PGH2, Q134E mutant; assay type: biochemical; conditions: 2.5 mM GSH, 1-500 μM PGH2, errors expected to be very large, read-out: Experimental KM, this work
T4 sequence (O14684 1-152 Q134E): T1 sequence (O14684 1-152) with Q134E
Procedure: as §1, §2

CS(=O)(=O)Nc1ccc([N+](=O)[O-])cc1OC1CCCCC1 [NS-398]
Ability to inhibit mPGES-1 (mPGES-1): able to inhibit mPGES-1

CCCCC[C@H](O)/C=C/[C@@H]1[C@@H](C/C=C\CCCC(=O)O)[C@@H]2C[C@H]1OO2 [PGH2, prostaglandin H2]
Km (mPGES-1 Q36E mutant): ~1610 µM
Km (wild-type mPGES-1): 130 µM
Km (mPGES-1 Q134E mutant): ~734 µM
